According to patent US9777070B2, “Anti-PTK7 antibody-drug conjugates” (Pfizer Inc., priority 2014, dated 2017):
Values after ≈ are worked out from the molar mass of the structure shown. Square brackets hold non-standard residues; d marks the D form. Peptide text beside a SMILES is read from it. * marks the point of attachment. Dolaproine = CO[C@@H]([C@@H]1CCCN1)[C@@H](C)C(=O)O; Dil = CC[C@H](C)[C@H](NC)[C@@H](CC(=O)O)OC; Doe = c1ccc(C[C@H](N*)c2nccs2)cc1; Aib = CC(C)(N)C(=O)O

Key:
H446 cells = test: In vitro cytotoxicity, MTS, 4 days; type: cell-based; conditions: Homo sapiens, NCI-H446, 96 h
Experimental: (§1) The cytotoxicity of the antibody-drug conjugate hu24-vc0101 was evaluated on cell lines that express the target PTK7. The engineered HEK293T-PTK7 over-expressing cell line was plated into a clear flat-bottom tissue culture plate (BD Falcon) at 500 cells per 180 μL of cell culture media per well. Human cancer cell lines were also tested in this assay and plated at a density that was previously determined to be optimal for each cell line according to their rate of growth (H661 1500 cells/well and H446 9600 cells/well in 150 μl). The cells were incubated overnight at 37° C. in a 5% CO2 incubator. On the following day, the hu24-vc0101 ADC and the 8.84 Ab-vc0101 ADC (negative control) were added to the cells on a 10 point concentration curve in triplicate samples starting with 3 or 10 μg/mL with 1:3 dilutions in cell culture media. The plate was incubated in a 37° C., 5% CO2 incubator for 4 days. The MTS assay (Promega CellTiter 96 Aqueous Non-Radioactive Cell Proliferation Assay) was used according to the supplier's instructions. 30 μL (H446, H661) or 40 μL (HEK293T-PTK7) of the combined MTS reagent was added to each well, and the plate was incubated in a 37° C., 5% CO2 incubator for 2 hours. The OD was determined at 490 nm with a 96-well plate reader. The average reading from wells with media alone was subtracted from the readings of wells with cells to control for background OD.

H661 cells = test: In vitro cytotoxicity, MTS, 4 days; type: cell-based; conditions: Homo sapiens, NCI-H661, 96 h
Experimental: as §1

H661 lung cancer cells = test: Microtubule structure by anti-tubulin immunofluorescence; type: cell-based, human; conditions: 48 hours, ADC or mAb 0-4 μg/mL, free 0101 0.1-10 nM, FIG. 22
Experimental: The cells were then fixed in 3% paraformaldehyde, washed with PBS, permeabilized with 0.5% Triton-X® (Sigma Chemical) in PBS, washed with PBS, and incubated with blocking buffer (5% normal goat serum and 0.2% Tween-20 in PBS). Cells were incubated with the primary anti-α-tubulin antibody (Sigma NoT9026, clone DM1A) in blocking buffer for 1 hour at room temperature. Afterwards, the cells were washed with PBS and incubated for 30 minutes with an Alexa Fluor® 488-conjugated secondary antibody (Invitrogen Corp) and 4′,6-diamidino-2-phenylindole (DAPI) to stain the DNA. The cells were visualized on a Zeiss LSM 510 Meta confocal microscope.

SMILES: CC[C@H](C)[C@@H]([C@@H](CC(=O)N1CCC[C@H]1[C@H](OC)[C@@H](C)C(=O)N[C@@H](Cc1ccccc1)c1nccs1)OC)N(C)C(=O)[C@@H](NC(=O)C(C)(C)N)C(C)C [compound 0101, 2-methylalanyl-N-[(3R,4S,5S)-3-methoxy-1-{(2S)-2-[(1R,2R)-1-methoxy-2-methyl-3-oxo-3-{[(1S)-2-phenyl-1-(1,3-thiazol-2-yl)ethyl]amino}propyl]pyrrolidin-1-yl}-5-methyl-1-oxoheptan-4-yl]-N-methyl-L-valinamide] (H-[Aib]V[Dil][Dolaproine]-Doe)
- IC50 (H446 cells): 0.59 ng/mL (≈ 0.794 nM)
- IC50 (H661 cells): 0.33 ng/mL (≈ 0.444 nM)
- effect on microtubule structure and cell cycle (H661 lung cancer cells): disrupted microtubule structure and led to G2/M cell cycle arrest
